Assay results: patent publication US9872875B2, “Component and method for treating viral disease” (Institut Pasteur of Shanghai, Chinese Academy of Sciences, priority 2012, dated 2018)
pEC50: −log10 of the molar value.

What was measured:
[1] = tested on: Coxsackie virus A16 (CVA16); assay: Coxsackie virus A16 TCID50 in RD cells; format: cell-based
Text: Coxsackie virus A16 in 10-fold serial dilutions were used to infect RD cells at different E02 concentrations. After cultured for 2 days, CPE was observed under optical microscope, and stained with crystal violet, to calculate 50% tissue culture infective dose. Specific procedures were the same as the TCID50 testing method of Example 1.

[2] = tested on: EV71 M.A.V. (mouse-adapted strain); assay: EV71 M.A.V. TCID50 in RD cells; format: cell-based, Enterovirus 71
Text: EV71 M.A.V. in 10-fold serial dilutions was used to infect RD cells at different E02 concentrations. After cultured for 3-4 days, CPE was observed under optical microscope, and stained with crystal violet, to calculate 50% tissue culture infective dose. Specific steps are similar to that for testing corresponding TCID50 of Example 1.

[3] = tested on: EV71 clinical isolate (EV71 FY 573); assay: EV71 plaque forming units in RD cells; format: cell-based, Enterovirus 71; settings: Enterovirus A, EV71 FY 573, 5-7 days, read-out: EC50 to reduce EV71 PFU in RD cells
Method: EV71 (clinical isolate of EV71 FY 573) was used to infect RD cells cultured in 12-well plates at different E02 concentrations. After cultured for 5 to 7 days, stained and plaque forming units were calculated. Procedures are detailed as follows:
(1) Cell seeding: 24 h prior to infection, RD cells were seeded in 12-well cell culture plates, 2×10^5 cells per well.
(2) Infection of cells: • a. Virus pre-incubated with drug: virus stock solution was in 10-fold serially diluted with DMEM to 50,000 PFU/ml, 5,000 PFU/ml, and 500 PFU/ml; and dispensed to 12-well plates at 500 μl per well, and 56 μl of E02 dissolved in DMEM at corresponding concentration was added, and incubated at 37° C. for 1 h; • b. Cells pre-incubated with drug: cell culture medium was removed from 12-well plates, each well was added 500 μl DMEM, then added 56 μl of E02 solution at corresponding concentration, and incubated at 37° C. for 1 h; • c. After 1 h incubation, drug was discarded from cell culture plates, 556 μl of virus pre-incubated with drug was transferred to cell culture plates, and incubated at 37° C. for 1 h; • d. […]
(3) After cultured for 5-7 days, gels were removed, stained with crystal violet, washed once with PBS, plaque numbers recorded and plaque forming units calculated.

[4] = tested on: EV71 clinical isolate SH-TS; assay: EV71 SH-TS PFU in RD cells; format: cell-based, Enterovirus 71; settings: Enterovirus A, 168 h, 5~7 days, read-out: EC50 to reduce EV71 SH-TS PFU in RD cells
Method: RD cells cultured in 12-well plates were infected with EV71 SH-TS or SH-RS at different E02 concentrations. After cultured for 5˜7 days, cells were stained and plaque-forming units were calculated. Same procedure is as detailed in “3. E02 reduces EV71 plaque forming units in RD cells” of Example 1.

[5] = Toxicity in ICR newborn mice; format: in vivo; settings: 50 mg/kg or 20 mg/kg intraperitoneally daily for 4 consecutive days
Method: Three-day-old ICR mice were injected intraperitoneally and daily with 50 μl of E02 at a dose of 50 mg/kg, 20 mg/kg, or 50 μl of DMEM for 4 consecutive days.

CVA16 = CVA16 infection in ICR newborn mice, viral RNA in tissues and serum; format: in vivo; settings: 50 mg/kg of E02 intraperitoneally; 6 days after infection
Method: 5×10^6 TCID50 CVA16 viruses (50 μl) were injected to infect two three-day-old ICR newborn mice. Five days after infection, serum and tissues (brain, bone marrow, heart, intestine, kidney, liver, lung, muscle, spleen, and thymus) were collected. Viral RNA in serum was extracted (viral RNA extraction kit, QIAGEN QIAamp Viral RNA Mini Kit, cat #52906). Tissue samples were placed in RNAstore preservation solution (Tiangen, DP408-02) and stored in −80° C. refrigerator. Total tissue RNA was extracted using tissue RNA extraction kit (RNAprep pure total animal tissue RNA extraction kit). Copies of CVA16 viral genome and GAPDH gene were detected using one-step real-time quantitative RT-PCR kit (QIAGEN QuantiTect SYBR Green RT-PCR Kit) in ABI 7900HT 384-well plate PCR system. Primers are the same as that of EV71 5′UTR primers. See Table 3 and Table 4 for reaction system and PCR program. See FIG. 8 for relative viral load in each tissue and serum. Clearly, CVA16 virus was detected mainly in brain, spinal cord, muscle, and serum.
Three-day-old ICR newborn mice were infected with CVA16 to test E02's efficacy to inhibit EV71 in vivo. Test mice were divided into three groups: drug group, infection group, and placebo group. […] RNA from tissues and serum were extracted and CVA16 viral RNA determined Treatment procedures were the same as previously described in “1.”

EV71 isolate SEP-4 = assay: EV71 SEP-4 replication in Vero cells, quantitative RT-PCR; format: cell-based, Enterovirus 71; settings: SEP-4, Vero cells, MOI 0.1, 46 h
Method: Vero cells were infected with EV71 SEP-4 virus strain (provided by Institut Pasteur of Cambodia, Cambodia strain) at different E02 concentrations, at the MOI of 0.1. After cultured for 46 h, viral RNA in culture supernatant was extracted. Relative EV71 viral load was determined by quantitative RT-PCR. For specific procedures, refer to Example 1.

Cc1ccc(C(=O)Nc2ccc(S(=O)(=O)O)c3cc(S(=O)(=O)O)cc(S(=O)(=O)O)c23)cc1NC(=O)c1cccc(NC(=O)Nc2cccc(C(=O)Nc3cc(C(=O)Nc4ccc(S(=O)(=O)O)c5cc(S(=O)(=O)O)cc(S(=O)(=O)O)c45)ccc3C)c2)c1 [E02, Suramin Sodium]
effect on CVA16 TCID50 in RD cells ([1]; 10 μM of E02): CVA16 TCID50 reduction | CVA16 titer in RD cells ([1]; 25 μM of E02, reduced from 1×10^9 TCID50/ml, 2 days): 1×10^4 TCID50/ml | inhibition of EV71 mouse adapted strain infection of RD cells ([2]; 10 μM of E02): completely inhibit | pEC50 ([2]; Enterovirus A, EV71, RD, read-out: EC50 to reduce EV71 M.A.V. TCID50 in RD cells): 5.09 | pEC50 [3]: 5.59 | pEC50 [4]: 5.65 | toxicity in three-day-old ICR mice [5]: No toxicity was observed | CVA16 RNA in brain, bone marrow, muscle and serum (CVA16): significantly decreased | concentration reducing EV71 replication by 10-fold (EV71 isolate SEP-4): 5.89 μM | concentration reducing EV71 replication by 100-fold (EV71 isolate SEP-4): 15.49 µM
